# Data reported in patent US20230391760A1, “HETEROCYCLIC GLP-1 AGONISTS” (Gasherbrum Bio, Inc., priority 2020, published 2023).
# Target: GLP-1 Receptor (Homo sapiens, UniProt P43220)
# Assay: GLP-1R agonist cAMP stimulation assay (HEK293/GLP1R/CRE-LUC cells, cAMP dynamic 2 Kit)
# Type: cell-based
# Conditions: HEK293/CRE-Luc cell line stably expressing the GLP-1 Receptor, 30 min at 37° C.
# Outline: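 cAMP measured by HTRF competition (d2-labelled cAMP with cryptate antibody, 1 h, room temperature, protected from light). Before that, GLP1R/CRE-Luc HEK293 cells (1000/well) were exposed for 30 min at 37 °C to half-log compound dilutions in DPBS containing IBMX 0.5 mM and BSA 0.1%.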
# GLP-1 Receptor, sequence (P43220 24-463, species assumed): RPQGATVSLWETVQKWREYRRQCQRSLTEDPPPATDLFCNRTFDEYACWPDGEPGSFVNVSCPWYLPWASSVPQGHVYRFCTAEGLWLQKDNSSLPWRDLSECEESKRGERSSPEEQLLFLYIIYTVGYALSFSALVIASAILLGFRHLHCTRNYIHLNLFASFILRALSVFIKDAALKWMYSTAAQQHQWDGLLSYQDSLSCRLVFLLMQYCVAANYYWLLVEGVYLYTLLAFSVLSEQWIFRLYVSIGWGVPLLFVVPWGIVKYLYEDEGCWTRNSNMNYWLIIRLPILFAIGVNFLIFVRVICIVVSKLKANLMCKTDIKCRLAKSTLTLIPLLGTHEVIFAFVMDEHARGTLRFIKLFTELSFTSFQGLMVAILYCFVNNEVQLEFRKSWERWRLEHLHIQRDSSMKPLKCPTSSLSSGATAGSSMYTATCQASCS
row,SMILES,EC50 [pM]
1,"O=C(Nc1ccc2c(c1)nc(CN1CCC(c3cccc(OCc4ccc(Cl)cc4F)n3)CC1)n2C[C@@H]1CCO1)C1CCCCO1 (stereo partly drawn) [Compound 155a, N-{2-[(4-{6-[(4-chloro-2-fluorophenyl)methoxy]pyridin-2-yl}piperidin-1-yl)methyl]-1-{[(2S)-oxetan-2-yl]methyl}-1H-1,3-benzodiazol-5-yl}oxane-2-carboxamide]",1000
2,"Fc1cc(Cl)ccc1COc1ccc(F)c(N2CCN(Cc3nc4cc(-c5nnc(C(F)(F)F)[nH]5)ncc4n3C[C@@H]3CCO3)CC2)n1 [Compound 501a, 1-{6-[(4-chloro-2-fluorophenyl)methoxy]-3-fluoropyridin-2-yl}-4-[(3-{[(2S)-oxetan-2-yl]methyl}-6-[5-(trifluoromethyl)-4H-1,2,4-triazol-3-yl]-3H-imidazo[4,5-c]pyridin-2-yl)methyl]piperazine]",38
3,"CO[C@H](C)Cn1c(CN2CCC(c3cccc4c3O[C@@](C)(c3ccc(Cl)cn3)O4)CC2)nc2cc(-c3nnc(C(F)(F)F)[nH]3)ncc21 [Compound 455a, 5-chloro-2-[(2S)-4-[1-({3-[(2R)-2-methoxypropyl]-6-[5-(trifluoromethyl)-4H-1,2,4-triazol-3-yl]-3H-imidazo[4,5-c]pyridin-2-yl}methyl)piperidin-4-yl]-2-methyl-2H-1,3-benzodioxol-2-yl]pyridine]",120
4,"Fc1cc(Cl)ccc1COc1cc(C2CCN(Cc3nc4cc(-c5nnc(C(F)(F)F)[nH]5)ncc4n3C[C@@H]3CCO3)CC2F)ccc1F (stereo partly drawn) [Compound 478a, (3,4-trans)-4-{3-[(4-chloro-2-fluorophenyl)methoxy]-4-fluorophenyl}-3-fluoro-1-[(3-{[(2S)-oxetan-2-yl]methyl}-6-[5-(trifluoromethyl)-4H-1,2,4-triazol-3-yl]-3H-imidazo[4,5-c]pyridin-2-yl)methyl]piperidine]",100
5,"C[C@]1(c2ccc(Cl)cc2F)Oc2cccc(C3CCN(Cc4nc5cc(-c6nnc(C(F)(F)F)[nH]6)ncc5n4C[C@@H]4CCO4)CC3)c2O1 [Compound 366a, 4-[(2S)-2-(4-chloro-2-fluorophenyl)-2-methyl-2H-1,3-benzodioxol-4-yl]-1-[(3-{[(2S)-oxetan-2-yl]methyl}-6-[5-(trifluoromethyl)-4H-1,2,4-triazol-3-yl]-3H-imidazo[4,5-c]pyridin-2-yl)methyl]piperidine]",12
6,"O=C(Nc1ccc2c(c1)nc(CN1CCC(c3cccc(OCc4ccc(Cl)cc4F)n3)CC1)n2C[C@@H]1CCO1)C1CCC2(CCC2)CO1 (stereo partly drawn) [Compound 197a, N-{2-[(4-{6-[(4-chloro-2-fluorophenyl)methoxy]pyridin-2-yl}piperidin-1-yl)methyl]-1-{[(2S)-oxetan-2-yl]methyl}-1H-1,3-benzodiazol-5-yl}-6-oxaspiro[3.5]nonane-7-carboxamide]",4300
7,"CC1(c2ccc(Cl)cc2F)Oc2cccc(C3CCN(Cc4nc5cc(-c6nnc(C(F)F)[nH]6)ccc5n4C[C@@H]4CCO4)CC3)c2O1 (stereo partly drawn) [Compound 227a, 2-({4-[2-(4-chloro-2-fluorophenyl)-2-methyl-2H-1,3-benzodioxol-4-yl]piperidin-1-yl}methyl)-5-[5-(difluoromethyl)-4H-1,2,4-triazol-3-yl]-1-{[(2S)-oxetan-2-yl]methyl}-1H-1,3-benzodiazole]",94
8,"CC1(c2ccc(C#N)cc2)Oc2cccc(C3CCN(Cc4nc5cc(-c6nnc(C(F)(F)F)[nH]6)ccc5n4C[C@@H]4CCO4)CC3)c2O1 (stereo partly drawn) [Compound 260a, 4-(2-methyl-4-{1-[(1-{[(2S)-oxetan-2-yl]methyl}-5-[5-(trifluoromethyl)-4H-1,2,4-triazol-3-yl]-1H-1,3-benzodiazol-2-yl)methyl]piperidin-4-yl}-2H-1,3-benzodioxol-2-yl)benzonitrile]",31
9,"CO[C@H](C)Cn1c(CN2CCC(c3cccc4c3O[C@@](C)(c3ccc(Cl)cc3F)O4)CC2)nc2cc(-c3nnc(C(F)(F)F)[nH]3)cnc21 [Compound 247b, 4-[(2S)-2-(4-chloro-2-fluorophenyl)-2-methyl-2H-1,3-benzodioxol-4-yl]-1-({3-[(2R)-2-methoxypropyl]-6-[5-(trifluoromethyl)-4H-1,2,4-triazol-3-yl]-3H-imidazo[4,5-b]pyridin-2-yl}methyl)piperidine]",93
10,"C[C@]1(c2ccc(Cl)cc2F)Oc2cccc(C3CCN(Cc4nc5cc(-c6nnc(C7CC7)[nH]6)ccc5n4C[C@@H]4CCO4)CC3)c2O1 [Compound 283a, 2-({4-[(2S)-2-(4-chloro-2-fluorophenyl)-2-methyl-2H-1,3-benzodioxol-4-yl]piperidin-1-yl}methyl)-5-(5-cyclopropyl-4H-1,2,4-triazol-3-yl)-1-{[(2S)-oxetan-2-yl]methyl}-1H-1,3-benzodiazole]",100
11,"O=C(Nc1ccc2c(c1)nc(CN1CCC(c3cccc(OCc4ccc(Cl)cc4F)n3)CC1)n2C[C@@H]1CCO1)c1cnc2ccccn12 [Compound 181a, N-{2-[(4-{6-[(4-chloro-2-fluorophenyl)methoxy]pyridin-2-yl}piperidin-1-yl)methyl]-1-{[(2S)-oxetan-2-yl]methyl}-1H-1,3-benzodiazol-5-yl}imidazo[1,2-a]pyridine-3-carboxamide]",310
12,"O=C(Nc1ccc2c(c1)nc(CN1CCC(c3cccc(OCc4ccc(Cl)cc4F)n3)CC1)n2C[C@@H]1CCO1)C(F)n1cccn1 (stereo partly drawn) [Compound 194a, N-{2-[(4-{6-[(4-chloro-2-fluorophenyl)methoxy]pyridin-2-yl}piperidin-1-yl)methyl]-1-{[(2S)-oxetan-2-yl]methyl}-1H-1,3-benzodiazol-5-yl}-2-fluoro-2-(1H-pyrazol-1-yl)acetamide]",470
13,"CC1(c2ccc(Cl)cn2)Oc2cccc(C3CCN(Cc4nc5cc(-c6nnc(C(F)(F)F)[nH]6)ncc5n4C[C@@H]4CCCO4)CC3)c2O1 (stereo partly drawn) [Compound 425a, 5-chloro-2-(2-methyl-4-{1-[(3-{[(2S)-oxolan-2-yl]methyl}-6-[5-(trifluoromethyl)-4H-1,2,4-triazol-3-yl]-3H-imidazo[4,5-c]pyridin-2-yl)methyl]piperidin-4-yl}-2H-1,3-benzodioxol-2-yl)pyridine]",130
14,"Fc1cc(Cl)ccc1COc1cccc(C2CCN(Cc3nc4cc(-c5nnc(C(F)(F)F)[nH]5)cnc4n3C[C@@H]3CCO3)CC2F)n1 (stereo partly drawn) [Compound 500a, 2-[(4-chloro-2-fluorophenyl)methoxy]-6-[(3,4-trans)-3-fluoro-1-[(3-{[(2S)-oxetan-2-yl]methyl}-6-[5-(trifluoromethyl)-4H-1,2,4-triazol-3-yl]-3H-imidazo[4,5-b]pyridin-2-yl)methyl]piperidin-4-yl]pyridine]",78
15,"O=C(Nc1ccc2c(c1)nc(CN1CCC(c3cccc(OCc4ccc(Cl)cc4F)n3)CC1)n2C[C@@H]1CCO1)C1CCC(F)(F)C1 (stereo partly drawn) [Compound 186a, N-{2-[(4-{6-[(4-chloro-2-fluorophenyl)methoxy]pyridin-2-yl}piperidin-1-yl)methyl]-1-{[(2S)-oxetan-2-yl]methyl}-1H-1,3-benzodiazol-5-yl}-3,3-difluorocyclopentane-1-carboxamide]",3000
16,"O=C(Nc1ccc2c(c1)nc(CN1CCC(c3cccc(OCc4ccc(Cl)cc4F)n3)CC1)n2C[C@@H]1CCO1)C1CCCNC1 (stereo partly drawn) [Compound 203a, N-{2-[(4-{6-[(4-chloro-2-fluorophenyl)methoxy]pyridin-2-yl}piperidin-1-yl)methyl]-1-{[(2S)-oxetan-2-yl]methyl}-1H-1,3-benzodiazol-5-yl}piperidine-3-carboxamide]",3200
17,"CC(C)C(=O)Nc1ccc2c(c1)nc(CN1CCC(c3cccc(OCc4ccc(Cl)cc4F)n3)CC1)n2C[C@@H]1CCO1 [Compound 105a, (S)—N-(2-((4-(6-((4-chloro-2-fluorobenzyl)oxy)pyridin-2-yl)piperidin-1-yl)methyl)-1-(oxetan-2-ylmethyl)-1H-benzo[d]imidazol-5-yl)isobutyramide]",175
18,"CC1(c2ccc(Cl)cc2F)Oc2cccc(C3CCN(Cc4nc5cc(-c6noc(=O)[nH]6)ccc5n4C[C@@H]4CCO4)CC3)c2O1 (mixture of isomers) [Compound 239a, 3-(2-((4-(2-(4-chloro-2-fluorophenyl)-2-methylbenzo[d][1,3]dioxol-4-yl)piperidin-1-yl)methyl)-1-(((S)-oxetan-2-yl)methyl)-1H-benzo[d]imidazol-5-yl)-1,2,4-oxadiazol-5(4H)-one]",71
19,"N#Cc1ccc(COc2cc(N3CCN(Cc4nc5cc(-c6nnc(C(F)(F)F)[nH]6)ncc5n4C[C@@H]4CCO4)CC3)ccc2F)c(F)c1 [Compound 469a, 3-fluoro-4-[(2-fluoro-5-{4-[(3-{[(2S)-oxetan-2-yl]methyl}-6-[5-(trifluoromethyl)-4H-1,2,4-triazol-3-yl]-3H-imidazo[4,5-c]pyridin-2-yl)methyl]piperazin-1-yl}phenoxy)methyl]benzonitrile]",87
20,"Fc1cc(Cl)ccc1COc1cccc(C2CCN(Cc3nc4cc(/C=C/c5cccnc5)ccc4n3C[C@@H]3CCO3)CC2)n1 [Compound 217a, 2-[(4-{6-[(4-chloro-2-fluorophenyl)methoxy]pyridin-2-yl}piperidin-1-yl)methyl]-1-{[(2S)-oxetan-2-yl]methyl}-5-[(E)-2-(pyridin-3-yl)ethenyl]-1H-1,3-benzodiazole]",4600
21,"Fc1cc(Cl)ccc1COc1nc(C2CCN(Cc3nc4cc(-c5nnc(C(F)(F)F)[nH]5)ncc4n3C[C@@H]3CCO3)CC2)ccc1F [Compound 472a, 2-[(4-chloro-2-fluorophenyl)methoxy]-3-fluoro-6-{1-[(3-{[(2S)-oxetan-2-yl]methyl}-6-[5-(trifluoromethyl)-4H-1,2,4-triazol-3-yl]-3H-imidazo[4,5-c]pyridin-2-yl)methyl]piperidin-4-yl}pyridine]",12
22,"CO[C@H](C)Cn1c(CN2CCC(c3cccc4c3OC(C)(c3ccc(Cl)cn3)O4)CC2)nc2cc(-c3nnc(C(F)(F)F)[nH]3)ncc21 (stereo partly drawn) [Compound 428a, 5-chloro-2-{4-[1-({3-[(2R)-2-methoxypropyl]-6-[5-(trifluoromethyl)-4H-1,2,4-triazol-3-yl]-3H-imidazo[4,5-c]pyridin-2-yl}methyl)piperidin-4-yl]-2-methyl-2H-1,3-benzodioxol-2-yl}pyridine]",360
